Experimental data as given in paper PMC9030166, “Natural Phaeosphaeride A Derivatives Overcome Drug Resistance of Tumor Cells and Modulate Signaling Pathways” (Pharmaceuticals, 2022).

How the values were obtained:
Format in all cases: cell-based, human
K562/i-S9_Dox = assay: MTT cytotoxicity, resistant K562/i-S9_Dox cells (P-gp overexpression); details: Homo sapiens, K562; resistant version, doxorubicin selected, MTT, 48 h
From the text: At the next stage, the cytotoxic activity of compounds 1, 2, and 9 (Scheme 2) was investigated on several pairs of cell lines that differ in the expression of P-gp and the method by which they were obtained. K562/i-S9 cells are the result of the ABCB1 transfection into K562 cells, which increases P-gp expression, but should not seriously affect other signaling pathways that could lead to drug resistance. K562/i-S9_Dox cells were obtained from K562/i-S9 by selection with low concentrations of doxorubicin to increase P-gp expression. Subline HBL-100/Dox is a derivative of HBL-100 cells, obtained by long-term selection with increasing concentrations of doxorubicin, which led not only to an increase in P-gp expression, but also to a change in the signaling pathways in this subline. Cells of the K562/i-S9_Dox subline express the highest level of P-gp: 94.7% ± 2.3 (p < 0.0001 relative to K562, and p = 0.04 relative to K562/i-S9). In cells of the K562/i-S9 line, the expression of P-gp is 80% ± 8.2 (p < 0.0001 relative to K562). At 0.7% ± 0.5, P-gp is practically not expressed in K562 cells (Figure 1).
Modifications of cell lines: K562/i-S9 is a clone obtained after transfection of K562 cells with the ABCB1 (MDR1) gene-encoding P-glycoprotein [36]. Cells HBL-100/Dox and K562/i-S9_Dox are cells obtained by long-term selection with increasing concentrations of doxorubicin (Sigma-Aldrich, St. Louis, MO, USA) from HBL-100 and K562/i-S9 cells, respectively. MCF-7, A594 cells, and primary cultures of soft tissue sarcomas were cultured in DMEM medium (PanEko, Russia), PC-3 and HCT-116 cells and all suspension cultures in RPMI1640 medium (PanEko, Russia) supplemented with 10% fetal bovine serum (GE Healthcare LifeSciences, USA), and gentamicin at a concentration of 40 μg/mL at 37 °C and 5% CO2.
Cells MCF-7, PC-3, A549, and HCT-116, and primary cultures of STSwere seeded in 96-well plates, 6 × 10^3 cells per well in 90 μL of culture medium. Suspension cultures were seeded at a concentration of 25 × 10^3 cells per well in 135 μL of medium. The test substances were dissolved in DMSO (Applichem, Council Bluffs, IA, USA) until a concentration of 1 × 10^−^2 M was obtained; for the subsequent dilution of the substances, a serum-free culture medium was used. The next day, for adhesive cultures, and on the same day, for suspension cultures, substances were added to the plates in a volume of 10 μL (adhesive cultures) and 15 μL (suspension cultures) per well at various concentrations; each concentration was added in 3–4 repetitions. The cells were cultured in the presence of substances for 48 h. Then, MTT reagent (PanEko, Moscow, Russia) was added to the wells at a concentration of 5 mg/mL in a volume of 20 μL per well. After 1.5–2 h, the medium with the reagent was removed, and the precipitate of the crystals of formazan was dissolved in 60 μL of DMSO. The optical density was determined using a Multiskan FC spectrophotometer (Thermo Scientific, Waltham, MA, USA) at a wavelength of 540 nm.
Based on the results of the experiments, a schedule was plotted of the dependence of the percentage of surviving cells (from control) on the concentration of the compound, and the sought concentration IC50 was calculated. The experiments were carried out in 3–4 times.

JNK (pThr183/pTyr185) = assay: MILLIPLEX MAP 9-Plex, JNK active form in A431 lysates; details: 10 μM; for JNK (pThr183/pTyr185) fluorescence intensity: A431 cell lysates, 1 h, M ± mx, control 50.9 ± 10.5; for activation of signaling pathway JNK (pThr183/pTyr185), in words: A431 cells
From the text: (§1) We used the MILLIPLEX MAP Multi-Pathway Magnetic Bead 9-Plex-Cell Signaling Multiplex Assay, which allows the simultaneous detection of nine phosphorylated proteins that are markers of the main intracellular signaling pathways (phosphorylation site is indicated in parentheses), a universal transcription factor that controls the expression of immune response genes; apoptosis and cell cycle NFκB (pS536); cAMP-dependent transcription factor (CREB (pS133); mitogen-activated kinase p38 (pT180/pY182); stress-activated protein kinase JNK (pT183/pY185); ribosomal […]; transcription factors STAT3 (pS727) and STAT5A/B (pY694/699); protein kinase B (Akt) (pS473); and kinase regulated by extracellular signals ERK1/2 (pT185/pY187).
(§2) The effect of various concentrations of PPA derivatives on the cell culture was studied using xCelligence RTCA equipment (AceaBioscience, San Diego, CA, USA). The concentration closest to the IC50 (10 μM) was chosen as the experimental concentration. The selected concentration of phaeosphaeride A derivatives allows for the assessment of the early effect of compounds on cells and compares their effectiveness. In this experiment, the signaling pathways Akt (pSer473), p70S6K (pThr412), NFkB (p65-pSer536), and CREB (pSer133) were not activated (Table 8). The stress-activated signaling pathways ERK/MAP kinase 1/2 (pThr185/pTyr187), JNK (pThr183/pTyr185), and p38 (pThr180/pTyr182) were activated for these compounds.
(§3) We used a MILLIPLEX MAP Multi-Pathway Magnetic Bead 9-Plex-Cell Signaling Multiplex Assay kit (Merck/Millipore), according to the manufacturer’s protocol. A431 cells were cultured in DMEM with 10% FBS in 24-well plates. Compounds were added to the subconfluent cells at a concentration of 10 μM in DMEM medium for 1 h. Each compound was added in 5 experimental repeats. Cell lysates were prepared with lysis buffer (Millipore) with protease inhibitors (Complete, Roche); the protein concentration in the lysates was determined by the Lowry method. In samples equalized in protein concentration, the active forms of kinase cascades were determined using a Bio-Plex 200 fluorescent analyzer (Bio-Rad).

p70S6K (pThr389/412) = assay: MILLIPLEX MAP 9-Plex, p70S6K active form in A431 lysates; details: A431 cell lysates, 10 μM, 1 h, M ± mx; control 39.9 ± 7.2
From the text: as §1, §2, §3

STAT5 (pTyr694/699) = assay: MILLIPLEX MAP 9-Plex, STAT5 active form in A431 lysates; details: 10 μM; for STAT5 (pTyr694/699) fluorescence intensity: A431 cell lysates, 1 h, M ± mx, control 44.2 ± 10.2
From the text: as §1, §2, §3

Row | SMILES | IC50 (K562/i-S9_Dox) [µM] | JNK (pThr183/pTyr185) fluorescence intensity (JNK (pThr183/pTyr185)) | p70S6K (pThr389/412) fluorescence intensity (p70S6K (pThr389/412)) | STAT5 (pTyr694/699) fluorescence intensity (STAT5 (pTyr694/699)) | activation of signaling pathway JNK (pThr183/pTyr185), in words (JNK (pThr183/pTyr185)) | activation of transcription factor STAT5A/B (pTyr694/699), in words (STAT5 (pTyr694/699); A431 cells)
1 | C=C1C2=C(C(=O)N1OC)[C@@H](N1CCCC1)[C@@](C)(O)[C@H](CCCCC)O2 [Compound 1] | 3.1 ± 0.8 | 239.9 ± 23.9 *↑ rel. units | 51.7 ± 4.8 rel. units | 115.4 ± 28.3 rel. units |  | 
2 | C=C1C2=C(C(=O)N1OC)[C@@H](N(C)C)[C@@](C)(O)[C@H](CCCCC)O2 [Compound 2, (2S,3R,4R)-4-(dimethylamino)-3-hydroxy-6-methoxy-3-methyl-7-methylene-2-pentyl-3,4,6,7-tetrahydropyrano[2,3-c]pyrrol-5(2H)-one] | 2.4 ± 0.9 | 559.2 ± 31.5 *↑ rel. units | 56.9 ± 9.9 rel. units | 179.2 ± 12.6 *↑ rel. units | maximum degree of activation | slightly activated
3 | C=C1C2=C(C(=O)N1OC)[C@@H](N(CCCC)CCCC)[C@@](C)(O)[C@H](CCCCC)O2 [Compound 5, (2S,3R,4R)-4-(dibutylamino)-3-hydroxy-6-methoxy-3-methyl-7-methylene-2-pentyl-3,4,6,7-tetrahydropyrano[2,3-c]pyrrol-5(2H)-one] |  | 83.1 ± 8.3 *↑ rel. units | 70.6 ± 9.2 *↑ rel. units | 75.7 ± 2.7 *↑ rel. units | only slightly activated | 
4 | C=C1C2=C(C(=O)N1OC)[C@@H](N(CC)CCO)[C@@](C)(O)[C@H](CCCCC)O2 [Compound 9, (2S,3R,4R)-4-[ethyl(2-hydroxyethyl)amino]-3-hydroxy-6-methoxy-3-methyl-7-methylene-2-pentyl-3,4,6,7-tetrahydropyrano[2,3-c]pyrrol-5(2H)-one] | 3.3 ± 0.6 | 117.9 ± 15.1 *↑ rel. units | 38.8 ± 7.4 rel. units | 69.6 ± 15.6 rel. units |  | 
5 | CCCCC[C@@H]1OC2=C(C(=O)N(OC)/C2=C\n2cnnc2)C(n2cnnc2)[C@@]1(C)O (stereo partly shown) [Compound 10] |  | 157.2 ± 15.4 *↑ rel. units | 53.4 ± 4.0 rel. units | 115.2 ± 16.9 *↑ rel. units | only slightly activated | 
